# Results as given in US20120027753A1, “MicroRNAs in Never-Smokers and Related Materials and Methods” (THE OHIO STATE UNIVERSITY, priority 2009, published 2012).
# Key:
# Type in all cases: cell-based, human
# [1] = test system: miR-21 expression in H3255 cells; assay: qRT-PCR of miR-21 expression after AG1478/EGF treatment, H3255; conditions: for miR-21 expression levels: AG1478 2 μM or 10 μM
# Method: (§1) FIGS. 2A-2B: AG1478 represses miR-21 expression. H3255 lung adenocarcinoma cells, characterized by a high expression of miR-21 and EGFR mutation, were serum-starved for 24 h and then grown in either the presence or absence of AG1478 (2 μM or 10 μM) for 2 h with or without following exposure to 20 ng/ml of EGF for 15 min.
# FIG. 2B: MiR-21 expression levels analyzed by qRT-PCR after the AG1478 treatments (2 μM or 10 μM) with or without EGF ligand stimulation. MiR-21 expression levels were expressed as the relative values to untreated cells in the absence of EGF. Data were mean±SD from four independent experiments. *, p<0.05, paired t-test.
# (§2) Expression of mature miRs was examined using qRT-PCR analysis using a TaqMan Human MicroRNA Assay kit (Applied Biosystems, Foster City, Calif.). RNU6B was used as an endogenous control (#4373381, Applied Biosystems). Reactions were performed using a PRISM 7700 Sequence Detector System (Applied Biosystems). Gene expression was quantified and values were reported as 2-ΔΔCT. Data were presented as mean±SD from triplicate.
# (§3) AG1478 was purchased from Calbiochem (San Diego, Calif.). Epidermal growth factor (EGF) was purchased from Promega (Madison, Wis.). To evaluate the effect of AG1478 on the EGFR signaling pathway and miR-21 expression levels, lung cancer cell lines were serum-starved for 24 h, incubated in the presence or absence of AG1478 (2 μM or 10 μM) for 2 h, and then for an additional 15 min in the presence or absence of EGF (20 ng/ml).
# [2] = test system: EGFR signaling (phospho-EGFR, phospho-Akt) in H3255 cells; assay: Western blot of p-EGFR and p-Akt after AG1478 treatment, H3255; conditions: H3255, AG1478 at either 2 μM or 10 μM for 2 h, with or without EGF 20 ng/ml
# Method: as §1
# FIG. 2A: The effect of AG1478 on phospho-EGFR (p-EGFR) and phospho-Akt (p-Akt) expression. β-actin was a loading control.
# as §3
# Cells were lysed in buffer containing 50 mM Tris-HCl, pH 7.6, 150 mM NaCl, 0.1% sodium dodecyl sulfate, 1% Nonidet P-40, and 0.5% sodium-deoxycholate. […] The supernatant was collected and then 10 μg of protein were separated by gel electrophoresis on 10% gels, transferred to nitrocellulose membranes and detected by immunoblotting using a chemiluminescence system (GE Healthcare Bio-Sciences Corp, Piscataway, N.J.). The images were quantified by measuring signal intensity using NIH ImageJ1.40g (rsb.info.nih.gov/ij/). […]
# [3] = test system: miR-21 expression in H441 cells; assay: qRT-PCR of miR-21 expression after AG1478 treatment, H441; conditions: H441, AG1478 at 10 μM, absence of EGF, p<0.05
# Method: FIG. 7: AG1478 represses miR-21 expression in H441 lung adenocarcinoma cells. MiR-21 expression levels were analyzed by qRT-PCR after the AG1478 treatments (2 μM or 10 μM) in the absence of EGF and expressed relative to untreated cells. Data were mean±SD from triplicate. *, p<0.05, paired t-test.
# as §2, §3
# [4] = test system: H3255 lung adenocarcinoma cells (EGFR mutant L858R); assay: MTS growth inhibition assay, H3255; conditions: 72 h, read-out: IC50 (half maximal inhibitory concentration), cell growth
# Source text: (§4) Six lung adenocarcinoma cell lines (A549, H23, H441, H1650, H1975 and H3255), one squamous cell line (H157) and one large cell carcinoma cell line (H1299) were used in this study. H3255 was provided by National Cancer Institute and maintained in ACL-4 medium (GIBCO) with 5% fetal bovine serum (GIBCO). A549, H23, H441, H1650, H1975, H157 and H1299 were purchased from American Type Culture Collection (ATCC) and maintained in RPMI 1640 (GIBCO) with 10% fetal bovine serum. hTERT-immortalized normal human bronchial epithelial cells (HBET2) were established.
# (§5) Growth inhibition was assessed by MTS assay (Dojindo, Japan) to examine the effect of AG1478 on lung cancer cell lines. Cell suspensions (5,000 cells/well) were seeded into 96-well plates and increasing concentrations of AG1478 (0, 0.4, 2.0, 10 and 50 μM) were added. After incubation for 72 h at 37° C., MTS [3-(4,5-dimethylthiazol-2-yl)-5-(3-carboxymethoxyphenyl)-2-(4-sulfophenyl) 2H-tetrazolium, inner salt] was added to each well and incubated for 2 h at 37° C., and then absorbance was measured using a microplate reader with a test wavelength of 450 nm. The IC50 value was defined as the concentration needed for 50% reduction of the growth by treatment with AG1478. Each experiment was done at least in triplicate, and four times independently. The data were shown as mean±SD.
# [5] = test system: H1650 lung adenocarcinoma cells (EGFR mutant ΔE746-A750); assay: MTS growth inhibition assay, H1650
# Source text: as §4, §5
# [6] = test system: A549 lung adenocarcinoma cells (EGFR wild-type); assay: MTS growth inhibition assay, A549
# Source text: as §4, §5
# [7] = test system: H441 lung adenocarcinoma cells (EGFR wild-type); assay: MTS growth inhibition assay, H441; conditions: 72 h, read-out: IC50 (half maximal inhibitory concentration), cell growth
# Source text: as §4, §5
# [8] = test system: H1975 lung adenocarcinoma cells (EGFR mutant L858R and T790M); assay: MTS growth inhibition assay, H1975
# Source text: as §4, §5
# miR-21 in H3255 cells = assay: qRT-PCR of miR-21 after anti-miR-21 transfection, H3255; conditions: H3255, 40 nM, 72 h, vs anti-EGFP control
# Method: (§6) FIG. 3A: Cells were transfected with 40 nM of anti-miR-21 (+) or control oligonucleotide (anti-EGFP) (−) for 72 h and examined by qRT-PCR. The expression levels of miR-21 after transfection of anti-miR-21 were expressed as the relative values to control. Data were mean±SD from three independent experiments. *, p<0.05, paired t-test.
# as §2
# (§7) 2′-O-methyl oligonucleotides were chemically synthesized at Integrated DNA Technologies (Coralville, Iowa). […] Activities of caspase-3 and caspase-7 were analyzed using ApoONE Homogeneous Caspase 3/7 Assay (Promega) according to the manufacturer's instructions. Samples were measured after 6 h of incubation with the caspase substrate on a fluorescent plate reader using wavelengths of 485 and 535 nm for excitation and emission, respectively. […]
# miR-21 in H441 cells = assay: qRT-PCR of miR-21 after anti-miR-21 transfection, H441; conditions: H441, 40 nM, 72 h, vs anti-EGFP control
# Method: as §6, §2, §7
# [9] = test system: uncleaved PARP in H441 cells; assay: Western blot of uncleaved PARP, H441; conditions: H441, anti-miR-21 in the presence or absence of AG1478 (2 μM, 72 h)
# Method: (§8) FIG. 3D: Uncleaved PARP was evaluated by Western blot. Cells were transfected with anti-miR-21 or anti-EGFP as above and then grown in the presence or absence of 2 μM of AG1478 for 72 h. β-actin was a loading control.
# (§9) Cells were lysed in buffer containing 50 mM Tris-HCl, pH 7.6, 150 mM NaCl, 0.1% sodium dodecyl sulfate, 1% Nonidet P-40, and 0.5% sodium-deoxycholate. The lysates were kept on ice for 30 min, and then centrifuged at 13000 g for 30 min. The supernatant was collected and then 10 μg of protein were separated by gel electrophoresis on 10% gels, transferred to nitrocellulose membranes and detected by immunoblotting using a chemiluminescence system (GE Healthcare Bio-Sciences Corp, Piscataway, N.J.). The images were quantified by measuring signal intensity using NIH ImageJ1.40g (rsb.info.nih.gov/ij/). The antibodies detecting EGFR, phospho-EGFR (Tyr1173), phospho-Akt (Ser473), PARP and β-actin were purchased from Cell Signaling Technology (Beverley, Mass.).
# [10] = test system: H441 cells (caspase-3 and caspase-7 activities); assay: ApoONE caspase 3/7 apoptosis assay, H441
# Method: (§10) FIGS. 3B-3C: Cells (H3255 or H441) were transfected with 40 nM of anti-miR-21 (+) or anti-EGFP (−) for 72 h and then grown in the presence or absence of 0.2 μM of AG1478 for 24 h (H3255) or 10 μM for 72 h (H441). The activities of caspase 3/7 were expressed as the relative values to the activities of cells without anti-miR-21 and AG1478. Data were mean±SD from at least four independent experiments. *, p<0.05, Student t-test.
# (§11) 2′-O-methyl oligonucleotides were chemically synthesized at Integrated DNA Technologies (Coralville, Iowa). 2′-O-methyl oligonucleotides had the following sequences: 2′OMe-enhanced green fluorescent protein (EGFP) (anti-EGFP) 5′-AAGGCAAGCUGACCCUGAAGU-3′ [SEQ ID NO:1] and 2′OMe-miR-21 (anti-miR-21) 5′-UCA ACA UCA GUC UGA UAA GCUA-3′ [SEQ ID NO:2]. H441 and H3255 cells were plated in triplicate in 96-well plates. Cells were transfected using LipofectAMINE 2000 reagent (Invitrogen) 24 h after plating. […] Activities of caspase-3 and caspase-7 were analyzed using ApoONE Homogeneous Caspase 3/7 Assay (Promega) according to the manufacturer's instructions. Samples were measured after 6 h of incubation with the caspase substrate on a fluorescent plate reader using wavelengths of 485 and 535 nm for excitation and emission, respectively. […]
# [11] = test system: H3255 cells (caspase-3 and caspase-7 activities); assay: ApoONE caspase 3/7 apoptosis assay, H3255
# Method: as §10, §11
# [12] = test system: uncleaved PARP in H3255 cells; assay: Western blot of uncleaved PARP, H3255; conditions: H3255, both anti-miR-21 and AG1478 (2 μM, 72 h)
# Method: as §8, §9
compound,measurement,setting,value
COc1cc2ncnc(Nc3cccc(Cl)c3)c2cc1OC [AG1478],miR-21 expression levels,"[1]; H3255, absence of EGF, p<0.01",significantly repressed
same,miR-21 expression levels,"[1]; H3255, with EGF 20 ng/ml, p<0.05",inhibited back to the basal levels
same,EGFR signaling (p-EGFR and p-Akt),[2],effectively inhibited the EGFR signaling
same,miR-21 expression,[3],significantly repressed miR-21 expression
same,IC50,[4],0.3 µM
same,cell proliferation,[5],inhibited cell proliferation
same,cell proliferation,[6],inhibited cell proliferation
same,IC50,[7],10 µM
same,cell proliferation,[8],inhibited cell proliferation
"EGF: Epidermal growth factor (EGF) ligand, purchased from Promega",upregulation of miR-21 expression,"[1]; H3255, serum-starved, EGF 20 ng/ml for 15 min, relative to untreated cells",~2.5 fold
"anti-miR-21: 2′-O-methyl antisense oligonucleotide targeting miR-21, 5′-UCA ACA UCA GUC UGA UAA GCUA-3′ [SEQ ID NO:2] (antisense UCAACAUCAGUCUGAUAAGCUA; all 2'-O-methyl, backbone not given here)",miR-21 expression after antisense transfection,miR-21 in H3255 cells,repression of miR-21 in these cells was confirmed
same,miR-21 expression after antisense transfection,miR-21 in H441 cells,repression of miR-21 in these cells was confirmed
same,amounts of uncleaved PARP,[9],markedly decreased
same,apoptosis (caspase 3/7 activities),"[10]; H441, anti-miR-21 40 nM alone",significant increase in apoptotic response
same,apoptosis (caspase 3/7 activities),"[10]; H441, anti-miR-21 40 nM in combination with 10 μM AG1478 for 72 h",further enhanced apoptotic response
same,apoptosis (caspase 3/7 activities),"[11]; H3255, anti-miR-21 40 nM alone",did not induce apoptosis
same,apoptosis (caspase 3/7 activities),"[11]; H3255, anti-miR-21 40 nM in combination with AG1478 at 0.2 μM for 24 h",significantly enhanced AG1478-induced apoptotic response
same,amounts of uncleaved PARP,[12],markedly decreased
